# Results reported in the supplement of paper PMC11061612.
# Legend:
# Assay in all cases: combination Emax (second highest fraction inhibited in the dose matrix, 72 h); higher = more inhibition; extreme values may be limits of the assay
# [1] = tested on: JIMT-1 (Breast Carcinoma)
# Outline: (§1)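 Cell lines in DMEM/F12 or RPMI with 10% FBS were plated in 1536-well plates, held 24 hours at 37°C, 5% CO2, then given two-drug dose matrices for 72 hours (DMSO typically 0.2%). Viability was read by CellTiter-Glo 2.0 luminescence and scaled as inhibition from 0 (vehicle wells) to 1 (blank wells). Combination Emax is the second-highest inhibition in the matrix; Bliss excess is observed combination effect minus expected EA + EB − EA·EB, EA and EB being single-agent effects.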
# [2] = tested on: CESS (Acute Myeloid Leukemia)
# Outline: as §1
# [3] = tested on: NCI-H716 (Colorectal Carcinoma)
# Outline: as §1
# [4] = tested on: CA46 (Burkitt's Lymphoma)
# Outline: as §1
# 5637 (Bladder Carcinoma) = tested on: 5637 (Bladder Carcinoma)
# Outline: as §1
# COLO-792 (Melanoma) = tested on: COLO-792 (Melanoma)
# Outline: as §1
# [5] = tested on: EPLC-272H (Other Solid Carcinomas)
# Outline: as §1
# [6] = tested on: UACC-812 (Breast Carcinoma)
# Outline: as §1
# [7] = tested on: DMS-53 (Small Cell Lung Carcinoma)
# Outline: as §1
# [8] = tested on: ESO26 (Esophageal Adenocarcinoma)
# Outline: as §1
# EW-16 (Ewing's Sarcoma) = tested on: EW-16 (Ewing's Sarcoma)
# Outline: as §1
# [9] = tested on: KYSE-140 (Esophageal Squamous Cell Carcinoma)
# Outline: as §1
# [10] = tested on: DU-4475 (Breast Carcinoma)
# Outline: as §1
# A204 (Rhabdomyosarcoma) = tested on: A204 (Rhabdomyosarcoma)
# Outline: as §1
# [11] = tested on: HCC1428 (Breast Carcinoma)
# Outline: as §1
# [12] = tested on: NCI-H2228 (Lung Adenocarcinoma)
# Outline: as §1
# NB13 (Neuroblastoma) = tested on: NB13 (Neuroblastoma)
# Outline: as §1
# [13] = tested on: JVM-2 (B-Cell Non-Hodgkin's Lymphoma)
# Outline: as §1
# [14] = tested on: GA-10 (Burkitt's Lymphoma)
# Outline: as §1
# [15] = tested on: CAL-27 (Oral Cavity Carcinoma)
# Outline: as §1
smiles,measurement,setting,value
"C[C@@H](c1ccc2nccn2c1)n1nnc2ncc(-c3cnn(C)c3)nc21 [Savolitinib] + Cc1c2c(nn1C)CSCc1cc(n(C)n1)CSc1cc(c3ccccc3c1)OCCCc1c(C(=O)O)n(C)c3c-2c(Cl)ccc13 [AZD5991] (first compound max 1 µM, 7x7, partner max 1 µM)",combination Emax,[1],0.213
same,combination Emax,[2],0.175
same,combination Emax,[3],0.0581
same,combination Emax,[4],0.0743
same,combination Emax,5637 (Bladder Carcinoma),0.0543
same,combination Emax,COLO-792 (Melanoma),0.726
same,combination Emax,[5],0.462
same,combination Emax,[6],0.627
same,combination Emax,[7],0.209
same,combination Emax,[8],0.169
same,combination Emax,EW-16 (Ewing's Sarcoma),0.167
same,combination Emax,[9],0.317
same,combination Emax,[10],0.173
same,combination Emax,A204 (Rhabdomyosarcoma),0.167
same,combination Emax,[11],0.971
same,combination Emax,[12],0.195
same,combination Emax,NB13 (Neuroblastoma),0.22
same,combination Emax,[13],0.181
same,combination Emax,[14],0.669
same,combination Emax,[15],0.494
